Earlier results on one compound are cited in US20210069214A1, “TOPICAL COMPOSITIONS COMPRISING A CORTICOSTEROID FOR THE TREATMENT OF PSORIASIS IN PEDIATRIC PATIENTS” (priority 2019, published 2021).

The series concerns HPA axis. Particulars: topical.

Regarding `CCC(=O)O[C@]1(C(=O)CCl)[C@@H](C)C[C@H]2[C@@H]3CCC4=CC(=O)C=C[C@]4(C)[C@@]3(F)[C@@H](O)C[C@@]21C` [Clobetasol propionate, [17-(2′-chloroacetyl)-9-fluoro-11-hydroxy-10,13,16-trimethyl-3-oxo-6,7,8,11,12,14,15,16-octahydrocyclopenta[a]phenanthren-17-yl]propanoate], the “dose that suppresses the HPA axis (as low as)” value was 2 grams per day.
